Source: patent US9862684B2, “Modulation of K2P channels” (The Regents of the University of California, priority 2013, dated 2018)

Target: T1, K2P18.1 (TRESK) (Mus musculus, UniProt Q6VV64)
T1 construct: expressed in transfected cells; host or cells: Xenopus oocytes
T1 sequence (Q6VV64 1-394): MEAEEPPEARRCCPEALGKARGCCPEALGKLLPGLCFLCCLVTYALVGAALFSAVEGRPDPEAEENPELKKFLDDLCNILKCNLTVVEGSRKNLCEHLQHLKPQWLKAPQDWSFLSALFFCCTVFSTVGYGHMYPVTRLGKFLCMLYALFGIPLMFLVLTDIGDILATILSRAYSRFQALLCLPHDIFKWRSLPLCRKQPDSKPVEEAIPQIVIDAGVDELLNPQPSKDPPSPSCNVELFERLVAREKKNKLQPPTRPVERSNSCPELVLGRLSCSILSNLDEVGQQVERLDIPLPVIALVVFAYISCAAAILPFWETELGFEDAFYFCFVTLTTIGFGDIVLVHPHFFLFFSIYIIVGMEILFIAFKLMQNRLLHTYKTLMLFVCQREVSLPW
Assay: Two-electrode voltage clamp, Xenopus oocytes expressing K2P18.1 (TRESK)
Format: cell-based, Murine
Description: FIG. 7 ML67-33 is a selective activator of heat- and mechanosensitive K2P channels. a-f, Exemplar I-V curves showing the effect of ML67-33 on a, K2P10.1 (TREK-2), b, K2P4.1 (TRAAK), c, K2P3.1 (TASK-1), d, K2P9.1 (TASK-3), e, K2P5.1 (TASK-2), and f, K2P18.1 (TRESK) measured in Xenopus oocytes in 2 mM [K^+]o pH 7.4. Currents were elicited by a voltage ramp from −150 to 50 mV, from a holding potential of −80 mV. g, Quantification of the effect of ML67-33 on the indicated channels. Data (mean±s.e., n≧6, N≧2) was normalized to basal channel activity and fitted to the Hill equation. […] Error bars indicate s.e., n≧6, N≧2.
Murine K2P channels were cloned into pGEMHE/pMO {Bagriantsev, 2011}, IRES-GFP (Invitrogen), or pYES2-MET25 (high copy 2μ, URA3) {Minor, 1999} for expression in oocytes, HEK-293T cells, and yeast, respectively, using standard molecular biology procedures, and verified by DNA sequencing.
Two-electrode voltage clamp recordings were performed from defolliculated stage V-VI Xenopus oocytes 24-48 hours after injection with 0.015-6.0 ng cRNA, using microelectrodes (0.3-3.0 MΩ) filled with 3M KCl. Data was acquired using the GeneClamp 500B (MDS Analytical Technologies) amplifier controlled by the pClamp software (Molecular Devices), and digitized at 1 kHz using Digidata 1332A (MDS Analytical Technologies). […]

Q: `CC1(C)c2cc(Cl)ccc2N(CCc2nnn[nH]2)c2ccc(Cl)cc21` [ML67-33, 2,7-dichloro-9,9-dimethyl-10-[2-(1H-tetrazol-5-yl)ethyl]acridine] was tested. Which “functional effect (in words)” value (applied at 100 μM) did it give?
A: little or no functional effects

Q: And the “Emax (fold)” value (at 100 μM (FIG. 7 legend), ** in Table 1)?
A: 0.9±0.1 fold
